Measured values reported in patent publication EP0705258B1, “AZOLYL-CYCLIC AMINE DERIVATIVES WITH IMMUNOMODULATORY ACTIVITY” (Knoll AG, priority 1993, dated 1995).
Structures can show the parent of a compound that is named as a salt.

Assays:
[1] = tested on: lymphocyte proliferation (BALB/c responder and mitomycin C treated C57BL/6 stimulator spleen cells); test: Mixed Lymphocyte Reaction (Test A), one-way MLR, tritiated thymidine incorporation; format: cell-based, mice; conditions: concentration causing 50% inhibition of lymphocyte proliferation, by linear interpolation, ≤ = active at this concentration but not tested at lower doses
Description: A mixed lymphocyte reaction (MLR) occurs when lymphocytes from two genetically dissimilar individuals, or inbred strains of mice are cultured together. An MLR results in the activation and proliferation of lymphocytes, which is measured by the incorporation of radiolabelled thymidine into the cellular DNA synthesised during cell division. A 'one-way' MLR is used to determine the immunosuppressive activity of test compounds in vitro. In this reaction one population of spleen cells serves as the stimulator cells and is treated with mitomycin C to prevent cell division. Spleen cells from a second allogeneic population (responder cells) are untreated and when mixed with the stimulator cells are able to undergo division which is measured. The degree of proliferation is measured in the presence and absence of test compound to assess the immunosuppressive activity of the compound.
The techniques for carrying out lymphocyte proliferation assays including MLRs are well known, eg Bradley, pages 156-166, in Mishell and Shiigi, Eds. Selected Methods in Cellular Immunology (Freeman, San Francisco, 1980); and Battisto et al, methods in Enzymology 1987; 150: 83-91. Various slight modifications of these techniques are in use and that used herein is described in Gibb, Webber and Bowen, J Immunological Methods 1985; 81: 107-113.
Cell suspensions obtained from the spleens of female BALB/c and C57BL/6 strain mice of between 6 and 9 weeks of age were used as sources of responder and stimulator cells respectively. The mice were killed using a rising concentration of CO2 and the spleens removed aseptically and teased using a scalpel and forceps to produce a single cell suspension in Hanks balanced salt solution (HBSS). The suspensions were filtered through cell strainers (Falcon), sedimented by centrifugation and resuspended in Tris-buffered ammonium chloride pH 7.2 (medium D) to lyse the erythrocytes. The cells were sedimented again and washed twice in HBSS before resuspending in complete RPMI 1640 tissue culture medium (medium E). The C57BL/6 cells were resuspended to 9 mls per spleen and a solution of mitomycin C at 400 µg/ml in medium E added to give a final concentration of 40 µg/ml. After incubation of the C57BL/6 cells at 37°C for 30 minutes in an atmosphere of 5% CO2 and 95% air, the cells were sedimented and washed 3 times in medium E. Both cell suspensions were diluted in medium E to 5 x 10^6 cells/ml. 100µl of each of the responder and stimulator cell suspensions were aliquoted into the wells of 96 well flat bottom microtitre plates containing 50 µl of test compound at an appropriate dilution (initially 50 µM diluted in medium E from a stock solution at 100 mM in dimethyl sulphoxide) giving a final test compound concentration of 10 µM (final dilution). Compounds active at this concentration were tested at further final dilution of 1 µM, 0.1 µM and 0.01 µM and 0.001 µM to determine the concentration of test compound which causes 50% inhibition of the immune response (IC50). After four days of culture at 37°C in a humidified atmosphere of 5% CO2 and 95% air, 1 µCi of tritiated thymidine in 20 µl of medium E was added to each well and the plates incubated for a further 24 hours. Cells were then harvested onto Inotech G7 glass fibre filter mats using an Inotech cell harvester. The filters were transferred to vials to which 2 ml of Packard Emulsifier-Safe scintillation fluid was added and the radioactivity from the incorporated thymidine was counted in a Packard liquid scintillation counter. The counts per minute (CPM) reflect the degree of lymphocyte proliferation. The data were analysed to determine the percentage inhibition of lymphocyte proliferation by the test compound. […]

[2] = tested on: tumour necrosis factor-α (TNF-α); test: Mouse Tumour Necrosis Factor Test (Test B), mouse endotoxin shock model, serum TNF-α by ELISA; format: in vivo, BALB/c mice; conditions: minimum effective oral dose giving significant reduction in serum TNF-α of ≥35%, dosed 2 h before LPS i.p., ≤ = active at dose given but not tested at lower doses; for minimal effective dose: Mus musculus, read-out: MTNF:MED
Description: Preferred compounds of the present invention are active in an in-vivo test which determines the ability of the compounds to inhibit the release of tumour necrosis factor-α (TNF-α) in a mouse endotoxin shock model (Test B). This model is similar to that described by Zuckerman and Bendele (1989), Infection and Immunity 57 (10): p3009-3013.
Each compound of formula I was combined with a carrier of a solution of 1.5% v/v sorbitan esters under the trade name Tween 80 and 0.25% v/v cellosize in sterile water (100 µl) and was administered orally to a group of four BALB/c mice. The concentration of compound was such as to provide dosages selected from 100, 30, 10, 3, 1, 0.1 and 0.03 mg/kg. Two hours after such oral administration, lipopolysaccharide (LPS) (E. coli 0127:B8) (100 µg) in sterile water (0.2 ml) was administered intraperitoneally to the test mice.
A control group of eight BALB/c mice was treated in a similar manner as the test group except that no test compound was included with the carrier.
One hour after LPS administration the mice were killed and blood was collected by cardiac puncture. The blood was incubated at 20°C for 2 hours and the serum was separated from the clotted blood following centrifugation. Serum tumour necrosis factor-α (TNF-α) levels were assayed by an enzyme-linked immunosorbent assay (ELISA) and the concentration of TNF-α in each of the drug-treated groups was compared with the control group by one-way analysis of variance followed by a multiple t-test.
The ELISA was carried out by coating a 96-well vinyl assay plate (Costar) overnight at 4°C with 50 µl per well of 2 µg/ml hamster anti-mouse TNF monoclonal antibody in 0.1M sodium hydrogen carbonate buffer at pH 8.2. After washing the plate with phosphate buffered saline (PBS) containing 0.05% v/v sorbitan esters under the trade name Tween 20 (wash buffer), a blocking/dilution buffer (10% sheep serum in PBS containing 0.1% v/v sorbitan esters under the trade name Tween 20 (200 µl)) was aliquoted to each well and incubated at 37°C for 0.5 hours. After aspirating the blocking buffer, the serum samples and pure TNF (as a standard) diluted in blocking/dilution buffer, were added to the wells and incubated at 37°C for 2 hours. After washing with the wash buffer, a polyclonal rabbit anti-mouse TNF-α antibody in blocking/dilution buffer (100 µl of a 1 in 10,000 dilution) was added and incubated for a further 1.5 hours at 37°C. After further washes, anti-rabbit IgG peroxidase conjugate (100 µl of a 1 in 4000 dilution) was added and incubated at 37°C for 0.5 hours. After further washing, the substrate solution (100 µl per well of 0.1 mg/ml 3,3', 5,5'-tetramethylbenzidine dihydrochloride in 0.1M phosphate citrate buffer, pH 5.0, to which 2 µl of 30% hydrogen peroxide per 10 ml was added just before use) was added and the colour allowed to develop. The reaction was stopped by the addition of 1M sulphuric acid (25 µl) and the optical density read in a multichannel spectrophotometer at 450 nm. The mean TNF-α concentration was determined by comparison with the standard curve and the mean TNF-α concentration for each group compared with that produced by the control group. Drug treatments which cause a statistically significant reduction in TNF-α concentration of ≥35% at a single dose at 100 mg/kg or less were considered active.

## 4-[2-(4-Methylimidazol-1-yl)ethyl]-1-(3-phenylpropyl)piperidine and 4-[2-(5-Methylimidazol-1-yl)ethyl]-1-(3-phenylpropyl)piperidine [Example 118]
[1]
  IC50: 1400 nM
[2]
  MTNF:MED: ≤100 mg/kg

## O=C(CCc1ccccc1)N1CCC(CCn2ccnc2)CC1 [Example 50, 4-[2-(imidazol-1-yl)ethyl]-1-(3-phenylpropionyl)piperidine]
[1]; Mus musculus
  IC50: 200 nM

## Cl.Cl.O=C(CCc1ccccc1)N1CCCCC1CCn1ccnc1 (stereo not shown) [Example 52, 2-[2-(Imidazol-1-yl)ethyl]-1-(3-phenylpropionyl)piperidine dihydrochloride]
[2]
  minimal effective dose: 100 mg/kg

## O=C(CCc1ccccc1)N1CCCC(Cn2ccnc2)C1 (stereo not shown) [Example 53, 3-Imidazol-1-ylmethyl-1-(3-phenylpropionyl)-piperidine]
[2]
  minimal effective dose: 30 mg/kg

## O=C(CCc1ccccc1)N1CCC(CCCn2ccnc2)CC1 [Example 56, 4-[3-(Imidazol-1-yl)propyl]-1-(3-phenylpropionyl)piperidine]
[1]; Mus musculus
  IC50: ≤ 1000 nM

## Cc1nccn1CCC1CCN(C(=O)CCc2ccc(Cl)cc2)CC1 [Example 57, 1-[3-(4-Chlorophenyl)propionyl]-4-[2-(2-methylimidazol-1-yl)ethyl]piperidine]
[1]; Mus musculus
  IC50: ≤ 1000 nM
[2]
  minimal effective dose: 100 mg/kg

## CC(C)c1nccn1CCC1CCN(C(=O)CCc2ccccc2)CC1 [Example 58, 4-[2-(2-Isopropylimidazol-1-yl)ethyl]-1-(3-phenylpropionyl)piperidine]
[1]; Mus musculus
  IC50: 4 nM

## CCCCCCCCCCCc1nccn1CCC1CCN(C(=O)CCc2ccccc2)CC1 [Example 62, 1-(3-Phenylpropionyl)-4-[2-(2-undecylimidazol-1-yl)ethyl]piperidine]
[1]; Mus musculus
  IC50: 1900 nM

## Cc1nc2ccccc2n1CCC1CCN(C(=O)CCc2ccccc2)CC1 [Example 65, 2-Methyl-1-{2-[1-(3-phenylpropionyl)-piperidin-4-yl]ethyl}benzimidazole]
[1]; Mus musculus
  IC50: 3800 nM

## CCc1nccn1CC1CCN(C(=O)CCc2ccccc2)CC1 [Example 66, 4-(2-Ethylimidazol-1-ylmethyl)-1-(3-phenylpropionyl)piperidine]
[1]; Mus musculus
  IC50: ≤ 1000 nM

## Cc1nccn1CCC1CCN(C(=O)CCc2ccccc2)CC1 [Example 72, 4-[2-(2-Methylimidazol-1-yl)ethyl]-1-(3-phenylpropionyl)piperidine]
[1]; Mus musculus
  IC50: 30 nM

## Cc1nccn1CCC1CCN(C(=O)CCCc2ccccc2)CC1 [Example 82, 4-[2-(2-Methylimidazol-1-yl)ethyl]-1-(4-phenylbutyroyl)piperidine]
[1]; Mus musculus
  IC50: ≤ 1000 nM

## O=C(CCCc1ccccc1)N1CCC(CCn2ccnc2)CC1 [Example 85, 4-[2-(Imidazol-1-yl)ethyl]-1-(4-phenylbutyroyl)piperidine]
[1]; Mus musculus
  IC50: 600 nM

## c1ccc(SCCN2CCC(CCn3ccnc3)CC2)cc1 [Example 86, 4-[2-(imidazol-1-yl)ethyl]-1-(2-phenylthioethyl)piperidine]
[1]; Mus musculus
  IC50: 2600 nM
[2]
  minimal effective dose: ≤ 10 mg/kg

## O=C(CCN1CCC(CCn2ccnc2)CC1)c1ccccc1 [Example 89, 4-[2-(Imidazol-1-yl)ethyl]-1-(3-oxo-3-phenylpropyl)piperidine]
[2]
  minimal effective dose: ≤ 30 mg/kg

## O=C(c1ccccc1Cl)c1nccn1CCC1CCN(CCCc2ccccc2)CC1 [Example 92, 4-{2-[2-(2-Chlorobenzoyl)imidazol-1-yl]-ethyl}-1-(3-phenylpropyl)piperidine]
[2]
  minimal effective dose: ≤ 10 mg/kg

## Cc1ccc(CCC(=O)N2CCC(CCn3ccnc3C)CC2)cc1 [Example 94, 4-[2-(2-methylimidazol-1-yl)ethyl]-1[3-(4-methylphenyl)propionyl]piperidine]
[1]; Mus musculus
  IC50: ≤ 1000 nM

## c1ccc(CCCN2CCN(CCn3ccnc3)CC2)cc1 [Example 95, 1-[2-imidazol-1-yl)ethyl]-4-(3-phenylpropyl)piperazine trihydrochloride]
[1]; Mus musculus
  IC50: 2800 nM
[2]
  minimal effective dose: ≤ 3 mg/kg

## c1ccc(CCCC2CCN(CCn3cncn3)CC2)cc1 [Example 97, 1-[2-(1H-1,2,4-triazol-1-yl)ethyl]-4-(3-phenylpropyl)-piperidine dihydrochloride]
[1]; Mus musculus
  IC50: 2300 nM

## c1ccc(CCCN2CCC(CCCn3ccnc3)CC2)cc1 [Example 104, 4-[3-(Imidazol-1-yl)propyl]-1-(3-phenylpropyl)piperidine]
[1]; Mus musculus
  IC50: ≤ 1000 nM
[2]
  minimal effective dose: ≤ 100 mg/kg

## Cc1nccn1CCC1CCN(CCCc2ccc(Cl)cc2)CC1 [Example 105, 1-[3-(4-Chlorophenyl)propyl]-4-[2-(2-methylimidazol-1-yl)ethyl]piperidine]
[1]; Mus musculus
  IC50: ≤ 1000 nM

## c1ccc(CCCN2CCC(CCn3cnc(-c4ccccc4)c3-c3ccccc3)CC2)cc1 [Example 108, 4-[2-(4,5-Diphenylimidazol-1-yl)ethyl]-1-(3-phenylpropyl)piperidine]
[1]; Mus musculus
  IC50: 1200 nM

## c1ccc(CCCN2CCC(CCn3cncn3)CC2)cc1 [Example 111, 1-(3-Phenylpropyl)-4-[2-(1H-1,2,4-triazol-1-yl)ethyl]piperidine]
[1]; Mus musculus
  IC50: 7300 nM
[2]
  minimal effective dose: ≤ 10 mg/kg

## c1ccc(CCCN2CCC(CCn3ccnn3)CC2)cc1 [Example 119, 1-(3-Phenylpropyl)-4-[2-(1H-1,2,3-triazol-1-yl)ethyl]piperidine]
[1]; Mus musculus
  IC50: 2400 nM

## COc1ccc(CCCN2CCC(CCn3ccnc3)CC2)cc1 [Example 124, 4-[2-(Imidazol-1-yl)ethyl]-1-[3-(4-methoxyphenyl)propyl]piperidine]
[2]
  minimal effective dose: ≤ 30 mg/kg
